Entries after “also recorded” stand apart in the source; their conditions may differ. Some results are limits rather than exact numbers.

In one data set the test system is HLY1. The data set can be described thus: Cell viability assay (Cell Titer Glo, 72 hours). Format: cell-based. Conditions: Homo sapiens, HLY1, DLBCL ABC subtype, single agent. The protocol: (§1) In addition, the study further explored the mechanism of action of the combination of acalabrutinib and capivasertib using western blot analysis.
(§2) Cell viability was measured using Cell Titer Glo reagent and readouts were taken using a Tecan plate reader with a 100 ms integration time. Data analysis was carried out using GeneData software version 15. A growth inhibition value less than 1 μM (GI50<1 μM) indicates sensitivity.
(In general: In ATP-based viability assays light output follows the ATP content of the culture.)

A further data set has as its system Karpas-422. The data set can be described thus: Cell viability assay (Cell Titer Glo, 72 hours). The class given is cell-based. Conditions: Homo sapiens, Karpas-422, DLBCL GCB subtype, single agent. The protocol: as §1, §2
In another data set the test system is OCI-LY10. Nature of the data set: Cell viability assay (Cell Titer Glo, 72 hours). The class given is cell-based. Conditions: Homo sapiens, OCI-LY10, DLBCL ABC subtype, single agent. How it is done: as §1, §2
A further data set relates to OCI-LY19. Nature of the data set: Cell viability assay (Cell Titer Glo, 72 hours). Conditions: Homo sapiens, OCI-LY19, DLBCL GCB subtype, single agent. The class given is cell-based. How it is done: as §1, §2
The test system of a further data set is OCI-LY3. Nature of the data set: Cell viability assay (Cell Titer Glo, 72 hours). Format: cell-based. Conditions: Homo sapiens, OCI-LY3, DLBCL ABC subtype, single agent. How it is done:
as §1, §2

A further data set deals with SuDHL4. Nature of the data set: Cell viability assay (Cell Titer Glo, 72 hours). Format: cell-based. Conditions: Homo sapiens, SU-DHL-4, SuDHL4, DLBCL GCB subtype, single agent. How it is done:
as §1, §2

For another data set, the system named is SuDHL6. Nature of the data set: Cell viability assay (Cell Titer Glo, 72 hours). The class given is cell-based. Conditions: Homo sapiens, SU-DHL-6, SuDHL6, DLBCL GCB subtype, single agent. The protocol:
as §1, §2

In a further data set the test system is TMD8. The data set can be described thus: Cell viability assay (Cell Titer Glo, 72 hours). The class given is cell-based. Conditions: Homo sapiens, TMD8, DLBCL ABC subtype, single agent. The protocol:
as §1, §2

For another data set, the system named is U2932. The data set can be described thus: Cell viability assay (Cell Titer Glo, 72 hours). Format: cell-based. Conditions: Homo sapiens, U2932, DLBCL ABC subtype, single agent. How it is done: as §1, §2
Another data set deals with WILL1. Nature of the data set: Cell viability assay (Cell Titer Glo, 72 hours). Format: cell-based. Conditions: WILL-1, WILL1, DLBCL Int subtype, single agent. The protocol:
as §1, §2

The subject of the next data set is WSU-DLCL2. Nature of the data set: Cell viability assay (Cell Titer Glo, 72 hours). Format: cell-based. Conditions: Homo sapiens, WSUDLCL2, WSU-DLCL2, DLBCL GCB subtype, single agent. The protocol:
as §1, §2

The next data set concerns OCI-LY10 cells. Nature of the data set: Western blot analysis of phospho-proteins. Format: cell-based, human. Conditions: 2 or 24 hours; for phosphorylation of AKTS473: 100 nM acalabrutinib or both. From the text:
(§3) Cells were then lysed in SDS lysis buffer, centrifuged and protein concentrations estimated. Samples were loaded onto Bis-Tris Novex gels, transferred onto nitrocellulose membranes and probed for phospho-proteins of interest.

Another data set relates to TMD8 cells. The data set can be described thus: Western blot analysis of phospho-proteins. Format: cell-based, human. Conditions: 2 or 24 hours; for phosphorylation of AKTS473: 100 nM acalabrutinib or both.
Source text: as §3
A general note: In western blotting, separated proteins are transferred to a membrane and probed.

Data set [1] concerns TMD8 human ABC DLBCL xenograft. Nature of the data set: In vivo efficacy in subcutaneous TMD8 human ABC-DLBCL xenograft model. Details: species or system mouse. Conditions: SCID mice, oral BID, acalabrutinib 20 mg/kg; for TGI (tumor growth inhibition): capivasertib 130 mg/kg 4 days on/3 days off, after 24 days of treatment; for MAX AVG BODY WEIGHT LOSS: capivasertib 130 mg/kg, 24-day study. How it is done: (§4) TMD8 human ABC-DLBCL tumor cells (5×10^6/mouse) were implanted subcutaneously in female CB.17 SCID mice. […] Tumor length and width was measured by caliper and tumor volume was calculated using the formula (length×width^2)*π/6.
For orientation: In xenograft studies the graft and the host belong to different species.

The subject of data set [2] is OCI-Ly10 human ABC DLBCL xenograft. The data set can be described thus: In vivo efficacy in subcutaneous OCI-Ly10 human ABC-DLBCL xenograft model. Also noted: species or system mouse. Conditions: SCID mice, oral BID, acalabrutinib 20 mg/kg; for TGI (tumor growth inhibition): capivasertib 130 mg/kg 4 days on/3 days off, after 25 days of treatment; for MAX AVG BODY WEIGHT LOSS: capivasertib 130 mg/kg, 25-day study. How it is done:
OCI-ly10 human ABC-DLBCL tumor cells (5×10^6/mouse) were implanted subcutaneously in female CB.17 SCID mice. […] Tumor length and width was measured by caliper and tumor volume was calculated using the formula (length×width^2)*π/6.

Data set [3] can be described thus: Plasma pharmacokinetics in the TMD8 xenograft efficacy study. Format: in vivo, mouse. Conditions: TMD8 xenograft mice; oral; day 20; 1, 2, 4 and 8-hour time points. How it is done: as §4

In the case of `CC#CC(=O)N1CCC[C@H]1c1nc(-c2ccc(C(=O)Nc3ccccn3)cc2)c2c(N)nccn12` [acalabrutinib, 4-{8-amino-3-[(2S)-1-(but-2-ynoyl)pyrrolidin-2-yl]imidazo[1,5-a]pyrazin-1-yl}-N-(pyridin-2-yl)benzamide], the concentration for 50% growth inhibition (GI50) (usually the concentration at which growth is held to half of that of the control) in the data set with HLY1 is above 3000 nM; in the data set with Karpas-422 it was above 3000 nM; in the data set with OCI-LY10, 22 nM; with OCI-LY19, above 3000 nM; in the data set on OCI-LY3, above 3000 nM; with SuDHL4, above 3000 nM. The GI50 with SuDHL6 is above 3000 nM; with TMD8, 25 nM; in the data set with U2932, above 3000 nM; with WILL1 it was above 3000 nM; with WSU-DLCL2, above 3000 nM. Moreover, the “phosphorylation of BTK” value in the data set on OCI-LY10 cells (100 nM acalabrutinib) and in the data set with TMD8 cells (100 nM acalabrutinib) was “decrease” throughout. Besides, the “phosphorylation of AKTS473” value in the data set on OCI-LY10 cells (1 μM capivasertib) and in the data set with TMD8 cells (1 μM capivasertib) was “decreased” each time. Moreover, the “TGI (tumor growth inhibition)” value is on record as 81% in [1], 81% in data set [1] (listed as Acalabrutinib), 74% in data set [2] and 74% in data set [2] (listed as Acalabrutinib). The “MAX AVG BODY WEIGHT LOSS” value in data set [1] is 5%; in data set [2], 2%. Also, in [3], the “steady-state drug exposure levels (unbound plasma concentrations), single agent versus combination” value is on record as “similar; also recorded: comparable”.
In the case of `NC1(C(=O)N[C@@H](CCO)c2ccc(Cl)cc2)CCN(c2ncnc3[nH]ccc23)CC1` [capivasertib, (S)-4-amino-N-(1-(4-chlorophenyl)-3-hydroxypropyl)-1-(7H-pyrrolo[2,3-d]pyrimidin-4-yl)piperidine-4-carboxamide], the GI50 was above 3000 nM with HLY1; 200 nM in the data set on Karpas-422; above 3000 nM with OCI-LY10; above 3000 nM in the data set with OCI-LY19; above 3000 nM in the data set with OCI-LY3; 710 nM in the data set with SuDHL4. Besides, the GI50 is 360 nM in the data set on SuDHL6; above 3000 nM in the data set with TMD8; above 3000 nM in the data set on U2932; above 3000 nM in the data set with WILL1; 60 nM with WSU-DLCL2. In addition, the “phosphorylation of AKTS473” value in the data set on OCI-LY10 cells (1 μM capivasertib) and in the data set with TMD8 cells (1 μM capivasertib) was “increased” throughout. Besides, the “phosphorylation of the downstream substrates PRAS40, GSK3β, FOXO and S6” value in the data set on OCI-LY10 cells (1 μM capivasertib) and in the data set with TMD8 cells (1 μM capivasertib) was “decreased” throughout. Besides, the “TGI (tumor growth inhibition)” value in data set [1], in [1] (listed as Capivasertib), in data set [2] and in data set [2] (listed as Capivasertib) was 0% each time. Further, the “MAX AVG BODY WEIGHT LOSS” value in [1] turned out to be 2%; in data set [2], 3%.

(Values after patent publication US12691113B2 (AstraZeneca AB, priority 2019, dated 2026).)
